The CheMixHub viscosity set
± gives the uncertainty stated by the source.

Experiment: xn = mol fraction of the nth substance listed

BrC(Br)Br + Brc1ccccc1
viscosity [mPa·s]
Conditions | x1 = 0.1693 | x1 = 0.1837 | x1 = 0.3354 | x1 = 0.3369 | x1 = 0.5411 | x1 = 0.5417 | x1 = 0.6863 | x1 = 0.6869 | x1 = 0.8606 | x1 = 0.871
298 K, 101.3 kPa | – | 1.207 ± 0.016 | – | 1.333 ± 0.017 | – | 1.51 ± 0.02 | – | 1.627 ± 0.021 | 1.769 ± 0.023 | –
318 K, 101.33 kPa | 0.9504 ± 0.039 | – | 1.051 ± 0.039 | – | 1.179 ± 0.039 | – | 1.272 ± 0.039 | – | – | 1.396 ± 0.039

CCC(C)(C)OC + C1CCCC1
viscosity [mPa·s], 100 kPa
Conditions | x1 = 0.0512 | x1 = 0.1014 | x1 = 0.2107 | x1 = 0.3001 | x1 = 0.4033 | x1 = 0.5001 | x1 = 0.6006 | x1 = 0.7352 | x1 = 0.8928 | x1 = 0.9498
293.15 K | 0.429 ± 0.03 | 0.429 ± 0.03 | 0.431 ± 0.03 | 0.432 ± 0.03 | 0.434 ± 0.03 | 0.435 ± 0.03 | 0.436 ± 0.03 | 0.437 ± 0.03 | 0.439 ± 0.03 | 0.439 ± 0.03
303.15 K | 0.386 ± 0.03 | 0.388 ± 0.03 | 0.392 ± 0.03 | 0.395 ± 0.03 | 0.398 ± 0.03 | 0.401 ± 0.03 | 0.404 ± 0.03 | 0.408 ± 0.03 | 0.413 ± 0.03 | 0.414 ± 0.03
313.15 K | 0.349 ± 0.03 | 0.35 ± 0.03 | 0.353 ± 0.03 | 0.355 ± 0.03 | 0.357 ± 0.03 | 0.359 ± 0.03 | 0.361 ± 0.03 | 0.364 ± 0.03 | 0.367 ± 0.03 | 0.368 ± 0.03

BrC(Br)Br + C1CCCCC1
viscosity [mPa·s]
Conditions | x1 = 0.1747 | x1 = 0.1851 | x1 = 0.3427 | x1 = 0.3428 | x1 = 0.5476 | x1 = 0.5486 | x1 = 0.6899 | x1 = 0.6911 | x1 = 0.8718 | x1 = 0.8747
298 K, 101.3 kPa | – | 0.959 ± 0.01 | – | 1.071 ± 0.012 | – | 1.258 ± 0.014 | 1.409 ± 0.017 | – | 1.67 ± 0.021 | –
318 K, 101.33 kPa | 0.7236 ± 0.039 | – | 0.82 ± 0.039 | – | 0.9769 ± 0.039 | – | – | 1.113 ± 0.039 | – | 1.309 ± 0.039

CCCCCCCCO + C1CCCCC1
Conditions | viscosity [mPa·s]
293.15 K, 100 kPa, x2 = 0.0821 | 7.85 ± 0.63
293.15 K, 100 kPa, x2 = 0.1596 | 6.77 ± 0.54
293.15 K, 100 kPa, x2 = 0.2413 | 5.78 ± 0.46
293.15 K, 100 kPa, x2 = 0.3502 | 4.63 ± 0.37
293.15 K, 100 kPa, x2 = 0.4402 | 3.78 ± 0.3
293.15 K, 100 kPa, x2 = 0.5611 | 2.83 ± 0.23
293.15 K, 100 kPa, x2 = 0.6512 | 2.26 ± 0.18
293.15 K, 100 kPa, x2 = 0.7501 | 1.79 ± 0.14
293.15 K, 100 kPa, x2 = 0.8503 | 1.38 ± 0.11
293.15 K, 100 kPa, x2 = 0.9396 | 1.11 ± 0.09
303.15 K, 100 kPa, x2 = 0.0821 | 5.56 ± 0.45
303.15 K, 100 kPa, x2 = 0.1596 | 4.83 ± 0.39
303.15 K, 100 kPa, x2 = 0.2413 | 4.15 ± 0.33
303.15 K, 100 kPa, x2 = 0.3502 | 3.33 ± 0.27
303.15 K, 100 kPa, x2 = 0.4402 | 2.73 ± 0.22
303.15 K, 100 kPa, x2 = 0.5611 | 2.08 ± 0.17
303.15 K, 100 kPa, x2 = 0.6512 | 1.72 ± 0.14
303.15 K, 100 kPa, x2 = 0.7501 | 1.4 ± 0.11
303.15 K, 100 kPa, x2 = 0.8503 | 1.12 ± 0.09
303.15 K, 100 kPa, x2 = 0.9396 | 0.92 ± 0.07
303.15 K, 101.33 kPa, x1 = 0.1206 | 1.057 ± 0.013
303.15 K, 101.33 kPa, x1 = 0.221 | 1.301 ± 0.016
303.15 K, 101.33 kPa, x1 = 0.2975 | 1.52 ± 0.018
303.15 K, 101.33 kPa, x1 = 0.3517 | 1.697 ± 0.02
303.15 K, 101.33 kPa, x1 = 0.4355 | 2.023 ± 0.024
303.15 K, 101.33 kPa, x1 = 0.5414 | 2.518 ± 0.029
303.15 K, 101.33 kPa, x1 = 0.608 | 2.869 ± 0.033
303.15 K, 101.33 kPa, x1 = 0.755 | 3.829 ± 0.043
303.15 K, 101.33 kPa, x1 = 0.8637 | 4.746 ± 0.053
308 K, 101 kPa, x2 = 0.1494 | 4.134 ± 0.031
308 K, 101 kPa, x2 = 0.2768 | 3.348 ± 0.025
308 K, 101 kPa, x2 = 0.3962 | 2.659 ± 0.02
308 K, 101 kPa, x2 = 0.5076 | 2.09 ± 0.016
308 K, 101 kPa, x2 = 0.6146 | 1.64 ± 0.013
308 K, 101 kPa, x2 = 0.7054 | 1.36 ± 0.011
308 K, 101 kPa, x2 = 0.7911 | 1.132 ± 0.0089
308 K, 101 kPa, x2 = 0.8587 | 0.96 ± 0.0077
308 K, 101 kPa, x2 = 0.9354 | 0.828 ± 0.0067
313.15 K, 100 kPa, x2 = 0.0821 | 4.06 ± 0.33
313.15 K, 100 kPa, x2 = 0.1596 | 3.56 ± 0.29
313.15 K, 100 kPa, x2 = 0.2413 | 3.09 ± 0.25
313.15 K, 100 kPa, x2 = 0.3502 | 2.52 ± 0.2
313.15 K, 100 kPa, x2 = 0.4402 | 2.1 ± 0.17
313.15 K, 100 kPa, x2 = 0.5611 | 1.65 ± 0.13
313.15 K, 100 kPa, x2 = 0.6512 | 1.37 ± 0.11
313.15 K, 100 kPa, x2 = 0.7501 | 1.14 ± 0.09
313.15 K, 100 kPa, x2 = 0.8503 | 0.9 ± 0.07
313.15 K, 100 kPa, x2 = 0.9396 | 0.78 ± 0.06
323.15 K, 100 kPa, x2 = 0.0821 | 3.03 ± 0.24
323.15 K, 100 kPa, x2 = 0.1596 | 2.65 ± 0.21
323.15 K, 100 kPa, x2 = 0.2413 | 2.31 ± 0.19
323.15 K, 100 kPa, x2 = 0.3502 | 1.93 ± 0.16
323.15 K, 100 kPa, x2 = 0.4402 | 1.66 ± 0.13
323.15 K, 100 kPa, x2 = 0.5611 | 1.34 ± 0.11
323.15 K, 100 kPa, x2 = 0.6512 | 1.13 ± 0.09
323.15 K, 100 kPa, x2 = 0.7501 | 0.95 ± 0.08
323.15 K, 100 kPa, x2 = 0.8503 | 0.77 ± 0.06
323.15 K, 100 kPa, x2 = 0.9396 | 0.66 ± 0.05

C=Cc1ccccc1 + C1CCOC1
viscosity [mPa·s], 101.33 kPa
Conditions | x1 = 0.1011 | x1 = 0.199 | x1 = 0.3001 | x1 = 0.401 | x1 = 0.4963 | x1 = 0.6002 | x1 = 0.6993 | x1 = 0.8017 | x1 = 0.8979
298.15 K | 0.514 ± 0.007 | – | 0.595 ± 0.008 | 0.632 ± 0.009 | 0.664 ± 0.009 | 0.695 ± 0.009 | 0.721 ± 0.01 | 0.742 ± 0.01 | 0.747 ± 0.01
303.15 K | 0.49 ± 0.007 | 0.528 ± 0.008 | 0.562 ± 0.008 | 0.599 ± 0.008 | 0.625 ± 0.009 | 0.658 ± 0.009 | 0.677 ± 0.009 | 0.695 ± 0.009 | 0.699 ± 0.009
308.15 K | 0.463 ± 0.007 | 0.498 ± 0.007 | 0.532 ± 0.008 | 0.564 ± 0.008 | 0.589 ± 0.008 | 0.616 ± 0.008 | 0.637 ± 0.009 | 0.652 ± 0.009 | 0.651 ± 0.009

C=Cc1ccccc1 + C1COCCO1
viscosity [mPa·s], 101.33 kPa
Conditions | x1 = 0.1012 | x1 = 0.2139 | x1 = 0.2989 | x1 = 0.3996 | x1 = 0.5054 | x1 = 0.6016 | x1 = 0.7019 | x1 = 0.805 | x1 = 0.9021
298.15 K | 1.119 ± 0.028 | 1.069 ± 0.026 | 1.043 ± 0.026 | 1.005 ± 0.025 | 0.966 ± 0.024 | 0.929 ± 0.023 | 0.891 ± 0.022 | 0.853 ± 0.022 | 0.819 ± 0.021
303.15 K | 1.034 ± 0.026 | 0.987 ± 0.025 | 0.959 ± 0.024 | 0.929 ± 0.023 | 0.893 ± 0.023 | 0.873 ± 0.022 | 0.829 ± 0.021 | 0.795 ± 0.02 | 0.766 ± 0.02
308.15 K | 0.957 ± 0.024 | 0.915 ± 0.023 | 0.889 ± 0.023 | 0.862 ± 0.022 | 0.83 ± 0.021 | 0.802 ± 0.021 | 0.774 ± 0.02 | 0.744 ± 0.019 | 0.716 ± 0.019

CCCCCCCl + C1COCCO1
303.15 K, 101.3 kPa
Conditions | viscosity [mPa·s]
x2 = 0.1087 | 0.6686 ± 0.0045
x2 = 0.2953 | 0.7084 ± 0.0047
x2 = 0.5004 | 0.7719 ± 0.005
x2 = 0.6974 | 0.8637 ± 0.0055
x2 = 0.9013 | 1.004 ± 0.0063

CC12CC3CC(C1)CC(C)(C3)C2 + C1C[C@@H]2[C@H]3CC[C@H](C3)[C@@H]2C1
viscosity [mPa·s], 100 kPa
Conditions | x1 = 0.1021 | x1 = 0.2015 | x1 = 0.3018 | x1 = 0.4005 | x1 = 0.4981 | x1 = 0.602 | x1 = 0.6998 | x1 = 0.8051 | x1 = 0.8993
293.15 K | 3.147 ± 0.026 | 3.237 ± 0.025 | 3.335 ± 0.024 | 3.436 ± 0.023 | 3.513 ± 0.022 | 3.592 ± 0.02 | 3.657 ± 0.019 | – | 3.747 ± 0.017
298.15 K | 2.841 ± 0.024 | 2.922 ± 0.023 | 3.002 ± 0.022 | 3.084 ± 0.021 | 3.151 ± 0.02 | 3.22 ± 0.019 | 3.273 ± 0.018 | – | 3.342 ± 0.016
303.15 K | 2.582 ± 0.022 | 2.65 ± 0.021 | 2.717 ± 0.02 | 2.787 ± 0.02 | 2.847 ± 0.019 | 2.904 ± 0.018 | – | – | 3.002 ± 0.015
313.15 K | 2.158 ± 0.019 | 2.207 ± 0.019 | 2.257 ± 0.018 | 2.307 ± 0.017 | 2.353 ± 0.016 | – | – | 2.451 ± 0.014 | 2.458 ± 0.014
323.15 K | 1.796 ± 0.017 | – | – | – | 1.955 ± 0.015 | 1.989 ± 0.014 | 2.012 ± 0.014 | – | 2.046 ± 0.013

CCCCCCCl + C=C(C)C(=O)OC
303.15 K, 101 kPa
Conditions | viscosity [mPa·s]
x2 = 0.1343 | 0.6215 ± 0.0063
x2 = 0.1947 | 0.6053 ± 0.0062
x2 = 0.3625 | 0.5729 ± 0.0061
x2 = 0.4962 | 0.5511 ± 0.0059
x2 = 0.6029 | 0.5375 ± 0.0059
x2 = 0.8144 | 0.5199 ± 0.0058
x2 = 0.8988 | 0.5152 ± 0.0058

CC(=O)c1ccc(Cl)cc1 + C=CC#N
308.15 K, 101 kPa
Conditions | viscosity [mPa·s]
x1 = 0.0547 | 0.3753 ± 0.0041
x1 = 0.1146 | 0.4278 ± 0.0045
x1 = 0.1793 | 0.4934 ± 0.0051
x1 = 0.2555 | 0.5751 ± 0.0058
x1 = 0.3377 | 0.6821 ± 0.0067
x1 = 0.4269 | 0.819 ± 0.0079
x1 = 0.5441 | 1.026 ± 0.0097
x1 = 0.6719 | 1.303 ± 0.012
x1 = 0.8213 | 1.697 ± 0.015
